# Patent US20090060851A1, “USE OF IDEBENONE FOR THE PREPARATION OF A TOPICALLY-APPLIED DEPIGMENTATION COMPOSITION AND CORRESPONDING COMPOSITION” (priority 2005, published 2009)
# Key:
# Format in all cases: cell-based, human
# [1] = tested on: SK-MEL-28; assay: Cell number quantitation with violet crystal
# Procedure: Cells: The study was carried out using a cell line derived from human melanoma, provided by ABAC (Asociación Banco Argentino de Células—Cell Bank of Argentina), with melanin synthesis capability (SK-MEL-28, ATCC origin). […] Study of in vitro compounds: […] After 24 hours have lapsed, the medium was replaced with 990 μl of fresh medium. 10 μl of sterile vehicle (50% propylene glycol, 30% ethanol and 20% distilled water) containing different concentrations of the compounds to be evaluated were added to this fresh medium. […] On the fourth day, the cells were not treated, and the remaining adherent cells were assayed on the fifth day according to the methods described below. The cells were thus continuously exposed to the compounds under study for the 5 days the culture lasted. All the concentrations of the compounds were studied in triplicate, comparing the mean of the 3 wells treated with the compounds with those treated with the vehicle alone. Cell number quantitation with violet crystal: A stain with a violet crystal aqueous solution was used for the purpose of determining the number of cells adhering to the plastic surviving in vitro treatment by means of indirect methods. […] The dishes were stained for 5 minutes at room temperature on a rotary platform, with gentle stirring. Then the excess colorant was decanted by turning the dish over and the entire dish was submerged 4 times in distilled water in a suitable container. After rinsing, the dishes were turned over and allowed to drip on absorbent paper until the excess water was completely removed. […] The plates were finally placed on a rotary agitator for 30 minutes at room temperature. […] In order to determine the fraction of cells surviving treatment at a specific concentration of the experimental agent, the OD590 of the treated wells (average of three measurements) was divided by the OD590 of the wells used with a control vehicle (average of three measurements).
# [2] = tested on: SK-MEL-28; assay: Dopaquinone content determination (OD475) in SK-MEL cells; conditions: assayed day 5
# Procedure: (§1) In vitro determinations were performed following the method devised by Dooley et al. (Skin Pharmacol. 1994; 7:188-200) in order to evaluate the capacity of idebenone to inhibit melanogenesis, according to the process described below:
# (§2) Cells: The study was carried out using a cell line derived from human melanoma, provided by ABAC (Asociación Banco Argentino de Células—Cell Bank of Argentina), with melanin synthesis capability (SK-MEL-28, ATCC origin). The cells were grown in plastic culture bottles or in 24-well plastic dishes in a modified Eagle medium (DMEM) supplemented with 10% fetal bovine serum (FBS) and were maintained at 37° C. in a 5% CO2 atmosphere.
# (§3) Study of in vitro compounds: SK-MEL cells detached with trypsin were seeded on plastic 24-well dishes (density of 1×10^5 cells per well) and incubated for 24 hours in modified Eagle medium (DMEM) supplemented with 10% fetal bovine serum (FBS) prior to treating with the compound to be evaluated. After 24 hours have lapsed, the medium was replaced with 990 μl of fresh medium. 10 μl of sterile vehicle (50% propylene glycol, 30% ethanol and 20% distilled water) containing different concentrations of the compounds to be evaluated were added to this fresh medium.
# (§4) Decimal dilutions of each compound in the sterile vehicle were prepared in order to obtain final concentrations of the compound to be studied ranging between 1.000 and 0.01 μg/ml. […]
# […] […] All the concentrations of the compounds were studied in triplicate, comparing the mean of the 3 wells treated with the compounds with those treated with the vehicle alone.
# (§5) Melanin content determination: The SK-MEL cell melanin content was determined after stirring the culture medium and washing the cells with PBS. The cells were then lysated by means of adding 1 ml of 1N NaOH to each well and repeated manual pipetting. The raw cell extract was analyzed using a spectrophotometer at 400 and 475 nm to determine the melanin and dopaquinone content, respectively. The results were expressed as a percentage of the cell cultures treated with the vehicle.
# [3] = tested on: SK-MEL-28; assay: Melanin content determination (OD400) in SK-MEL cells; conditions: for OD400 (melanin) / OD400 expressed as percentage of control (melanin): assayed day 5
# Procedure: as §1, §2, §3, §4
# […] The cells were thus continuously exposed to the compounds under study for the 5 days the culture lasted. All the concentrations of the compounds were studied in triplicate, comparing the mean of the 3 wells treated with the compounds with those treated with the vehicle alone.
# as §5
# [4] = dilution −1, treated daily 3 days
# [5] = dilution −2, treated daily 3 days
# [6] = dilution −3, treated daily 3 days
# [7] = dilution −4, treated daily 3 days
# [8] = dilution −5, treated daily 3 days
smiles,measurement,setting,value
"Oc1ccc(O)cc1 [hydroquinone, 1,4-benzenediol]",Toxicity for cells,"[1]; SK-MEL-28, high concentrations",toxicity for hydroquinone was higher
same,Percentage of viable cells,"[1]; dilution −1, percentage of control vehicle",34%
same,Percentage of viable cells,"[1]; dilution −2, percentage of control vehicle",58%
same,Percentage of viable cells,"[1]; dilution −3, percentage of control vehicle",77%
same,Percentage of viable cells,"[1]; dilution −4, percentage of control vehicle",89%
same,Percentage of viable cells,"[1]; dilution −5, percentage of control vehicle",95%
same,OD475 (dopaquinone),[2]; [4],0.0001
same,OD475 expressed as percentage of control (dopaquinone),[2]; [4],0%
same,OD475 (dopaquinone),[2]; [5],0.0013
same,OD475 expressed as percentage of control (dopaquinone),[2]; [5],8%
same,OD475 (dopaquinone),[2]; [6],0.0083
same,OD475 expressed as percentage of control (dopaquinone),[2]; [6],51%
same,OD475 (dopaquinone),[2]; [7],0.0163
same,OD475 expressed as percentage of control (dopaquinone),[2]; [7],100%
same,OD475 (dopaquinone),[2]; [8],0.0163
same,OD475 expressed as percentage of control (dopaquinone),[2]; [8],100%
same,Melanin synthesis inhibition,"[3]; SK-MEL-28, Example 5",stops being effective
same,OD400 (melanin),[3]; [4],0.007
same,OD400 expressed as percentage of control (melanin),[3]; [4],21%
same,OD400 (melanin),[3]; [5],0.012
same,OD400 expressed as percentage of control (melanin),[3]; [5],36%
same,OD400 (melanin),[3]; [6],0.021
same,OD400 expressed as percentage of control (melanin),[3]; [6],64%
same,OD400 (melanin),[3]; [7],0.036
same,OD400 expressed as percentage of control (melanin),[3]; [7],109%
same,OD400 (melanin),[3]; [8],0.034
same,OD400 expressed as percentage of control (melanin),[3]; [8],103%
